Reference: patent publication US6908919B2, “Substituted polycyclic aryl and heteroaryl pyrazinones useful for selective inhibition of the coagulation cascade” (Pharmacia Corporation, priority 1999, dated 2005)

Biological target: Human factor Xa (Homo sapiens, UniProt P00742)
Assay: Xa Assay
Type: biochemical
Parameters: purchased Enzyme Research Laboratories, South Bend Ind

Human factor Xa, sequence (P00742 41-179 limits assumed): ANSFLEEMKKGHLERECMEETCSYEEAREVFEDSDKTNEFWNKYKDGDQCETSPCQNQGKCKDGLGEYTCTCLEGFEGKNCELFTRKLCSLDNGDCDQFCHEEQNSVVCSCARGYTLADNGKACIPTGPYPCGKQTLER
Human factor Xa, sequence (P00742 235-488 limits assumed): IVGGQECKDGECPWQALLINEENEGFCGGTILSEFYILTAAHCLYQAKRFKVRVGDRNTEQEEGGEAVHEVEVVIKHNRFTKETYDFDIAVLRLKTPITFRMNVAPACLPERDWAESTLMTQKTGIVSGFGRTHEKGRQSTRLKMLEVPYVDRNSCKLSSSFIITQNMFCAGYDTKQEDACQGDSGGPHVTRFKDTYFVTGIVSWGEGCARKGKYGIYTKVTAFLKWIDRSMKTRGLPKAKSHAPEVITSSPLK

Compound: N=C(N)c1ccc(CNC(=O)Cn2c(-c3ccccc3)c(Cl)nc(NCc3cc(F)cc(F)c3)c2=O)cc1 [1512-39]
- % Inhibition Factor Xa (30 µM) (at 30 µM inhibitor): 4%

Compound: N=C(N)c1ccc(CNC(=O)Cn2c(-c3ccccc3)c(Cl)nc(NC3CCCc4ccccc43)c2=O)cc1 (centres unmarked) [1507-16]
- % Inhibition Factor Xa (30 µM) (at 30 µM inhibitor): 18%

Compound: CC(C)Nc1nc(Cl)c(-c2ccc(Cl)nc2)n(CC(=O)NCc2ccc(C(=N)N)cc2F)c1=O [Example 74]
- % Inhibition Factor Xa (30 µM) (at 30 µM inhibitor): 13%

Compound: COC(=O)c1cccc(-c2c(Cl)nc(NC(C)C)c(=O)n2CC(=O)NCc2ccc(C(=N)N)cc2)c1 [Example 64]
- % Inhibition Factor Xa (30 µM) (at 30 µM inhibitor): 19%

Compound: Cc1c(Cl)nc(NCCc2cccc(Cl)c2)c(=O)n1CC(=O)NCc1ccc(C(=N)N)cc1 [1471-6]
- % Inhibition Factor Xa (30 µM) (at 30 µM inhibitor): 14%

Compound: N=C(N)c1ccc(CNC(=O)Cn2c(-c3ccccc3)c(Cl)nc(NCCc3ccc(Cl)c(Cl)c3)c2=O)cc1 [1507-44]
- % Inhibition Factor Xa (30 µM) (at 30 µM inhibitor): 9%

Compound: CCCNc1nc(Cl)c(-c2ccccc2)n(CC(=O)NCc2ccc(C(=N)N)cc2)c1=O [Example 1517-33]
- % Inhibition Factor Xa (30 µM) (at 30 µM): 0%

Compound: N=C(N)c1ccc(CNC(=O)Cn2c(-c3ccc(Cl)cc3)c(Cl)nc(NCCc3ccccc3)c2=O)cc1 [1471-23]
- % Inhibition Factor Xa (30 µM) (at 30 µM inhibitor): 36%

Compound: COc1cccc(CNc2nc(Cl)c(-c3ccccc3)n(CC(=O)NCc3ccc(C(=N)N)cc3)c2=O)c1OC [1512-02]
- % Inhibition Factor Xa (30 µM) (at 30 µM inhibitor): 3%

Compound: N=C(N)c1ccc(CNC(=O)Cn2c(-c3cccc(N)c3)cnc(NC3CCC3)c2=O)cc1 [Example 92]
- % Inhibition Factor Xa (30 µM) (at 30 µM inhibitor): 18% @ 30

Compound: Cc1ccccc1-c1c(Cl)nc(NCCc2ccccc2)c(=O)n1CC(=O)NCc1ccc(C(=N)N)cc1 [Example 78]
- % Inhibition Factor Xa (30 µM) (at 30 µM inhibitor): 16% @ 30

Compound: N=C(N)c1ccc(CNC(=O)Cn2c(-c3ccccc3)c(Cl)nc(NCCN3CCOCC3)c2=O)cc1 [1471-12]
- % Inhibition Factor Xa (30 µM) (at 30 µM inhibitor): 9%

Compound: CCc1c(Cl)nc(NCCc2ccc(Cl)cc2)c(=O)n1CC(=O)NCc1ccc(C(=N)N)cc1 [1471-58]
- % Inhibition Factor Xa (30 µM) (at 30 µM inhibitor): 0%

Compound: N=C(N)c1ccc(CNC(=O)Cn2c(-c3c(Cl)cccc3Cl)c(Cl)nc(NCCc3ccccc3)c2=O)cc1 [Example 1517-18]
- % Inhibition Factor Xa (30 µM) (at 30 µM): 0%

Compound: CC(C)CCNc1nc(Cl)c(-c2ccccc2)n(CC(=O)NCc2ccc(C(=N)N)cc2)c1=O [Example 1517-40]
- % Inhibition Factor Xa (30 µM) (at 30 µM): 0%

Compound: CSCC(C(=O)NCc1ccc(C(=N)N)cc1)n1c(-c2ccccc2)c(Cl)nc(NC2CCC2)c1=O (centres unmarked) [Example 1517-10]
- % Inhibition Factor Xa (30 µM) (at 30 µM inhibitor): 0%

Compound: C[C@H](C(=O)NCc1ccc(C(=N)N)cc1)n1c(-c2ccccc2)c(Cl)nc(NC2CCC2)c1=O [Example 1517-11]
- % Inhibition Factor Xa (30 µM) (at 30 µM inhibitor): 0%

Compound: O=C(Cn1c(-c2ccc(-c3ccccc3)cc2)c(Cl)nc(NCCc2ccc(Cl)cc2)c1=O)NCCc1cccnc1 [Example E-0119]
- % Inhibition Factor Xa (100 µM): 5%

Compound: N=C(N)c1ccc(CNC(=O)Cn2c(-c3ccc4c(c3)OCO4)c(Cl)nc(NCCc3cccc(Cl)c3)c2=O)cc1 [1471-46]
- % Inhibition Factor Xa (30 µM) (at 30 µM inhibitor): 21%

Compound: CCOc1ccccc1CNc1nc(Cl)c(-c2ccccc2)n(CC(=O)NCc2ccc(C(=N)N)cc2)c1=O [1512-11]
- % Inhibition Factor Xa (30 µM) (at 30 µM inhibitor): 5%

Compound: CN(C)CCCNc1nc(Cl)c(-c2ccccc2)n(CC(=O)NCc2ccc(C(=N)N)cc2)c1=O [1507-47]
- % Inhibition Factor Xa (30 µM) (at 30 µM inhibitor): 19%

Compound: CC(CNc1nc(Cl)c(-c2cccc(N)c2)n(CC(=O)NCc2ccc(C(=N)N)cc2)c1=O)N(C)C (centres unmarked) [1543-19]
- % Inhibition Factor Xa (30 µM) (at 30 µM): 11%

Compound: N=C(N)c1ccc(CNC(=O)Cn2c(-c3ccccc3)c(Cl)nc(NC3CCC3)c2=O)cc1 [1507-21]
- % Inhibition Factor Xa (30 µM) (at 30 µM inhibitor): 23%

Compound: CSc1ccc(N)cc1-c1c(Cl)nc(NC(C)C)c(=O)n1CC(=O)NCc1ccc(C(=N)N)cc1 [Example 76]
- % Inhibition Factor Xa (30 µM) (at 30 µM inhibitor): 0%

Compound: Cc1c(Cl)nc(NCCc2cccnc2)c(=O)n1CC(=O)NCc1ccc(C(=N)N)cc1 [1471-8]
- % Inhibition Factor Xa (30 µM) (at 30 µM inhibitor): 27%

Compound: Cc1c(N)cccc1-c1cnc(NC(C)C)c(=O)n1CC(=O)NCc1ccc(C(=N)N)cc1 [Example 98]
- % Inhibition Factor Xa (30 µM) (at 30 µM inhibitor): 10% @ 30

Compound: N=C(N)c1ccc(CNC(=O)Cn2c(-c3ccc4c(c3)OCO4)c(Cl)nc(NCCc3ccncc3)c2=O)cc1 [1471-45]
- % Inhibition Factor Xa (30 µM) (at 30 µM inhibitor): 24%

Compound: N=C(N)c1ccc(CNC(=O)Cn2c(-c3ccccc3)c(Cl)nc(NCCCc3ccccc3)c2=O)cc1 [1512-06]
- % Inhibition Factor Xa (30 µM) (at 30 µM inhibitor): 4%

Compound: CC(C)Nc1ncc(-c2cccc(N)c2)n(CC(=O)NCc2ccc(C(=N)N)c(F)c2)c1=O [Example 43]
- % Inhibition Factor Xa (30 µM) (at 30 µM inhibitor): 0%

Compound: N=C(N)c1ccc(CNC(=O)Cn2c(-c3ccccc3)c(Cl)nc(NCCc3ccncc3)c2=O)cc1 [Example 19]
- % Inhibition Factor Xa (30 µM) (at 30 µM inhibitor): 22% @ 30

Compound: COc1ccc(CCNc2nc(Cl)c(-c3ccccc3)n(CC(=O)NCc3ccc(C(=N)N)cc3)c2=O)cc1OC [1512-05]
- % Inhibition Factor Xa (30 µM) (at 30 µM inhibitor): 10%

Compound: C[C@H](C(=O)NCc1ccc(C(=N)N)cc1)n1c(-c2ccccc2)c(Cl)nc(NCc2ccccc2)c1=O [Example 1517-05]
- % Inhibition Factor Xa (30 µM) (at 30 µM inhibitor): 0%

Compound: Cc1c(Cl)nc(NCc2ccccc2)c(=O)n1CC(=O)NCc1ccc(C(=N)N)cc1 [1471-1]
- % Inhibition Factor Xa (30 µM) (at 30 µM inhibitor): 10%

Compound: N=C(N)c1ccc(CNC(=O)Cn2c(-c3ccc(Cl)cc3)c(Cl)nc(NCCc3cccc(Cl)c3)c2=O)cc1 [1471-22]
- % Inhibition Factor Xa (30 µM) (at 30 µM inhibitor): 28%

Compound: N=C(N)c1ccc(CNC(=O)Cn2c(-c3ccccc3)c(Cl)nc(NCc3ccc(C(F)(F)F)cc3F)c2=O)cc1 [1512-26]
- % Inhibition Factor Xa (30 µM) (at 30 µM inhibitor): 5%

Compound: N=C(N)c1ccc(CNC(=O)Cn2c(-c3ccccc3)c(Cl)nc(NCc3ccccc3Cl)c2=O)cc1 [1507-03]
- % Inhibition Factor Xa (30 µM) (at 30 µM inhibitor): 21%

Compound: N=C(N)c1ccc(CNC(=O)Cn2c(-c3ccccc3)c(Cl)nc(NCc3cc(F)ccc3F)c2=O)cc1 [1512-36]
- % Inhibition Factor Xa (30 µM) (at 30 µM inhibitor): 9%

Compound: Cc1cccc(-c2c(Cl)nc(NCCc3ccccc3)c(=O)n2CC(=O)NCc2ccc(C(=N)N)cc2)c1 [Example 81]
- % Inhibition Factor Xa (30 µM) (at 30 µM inhibitor): 33% @ 30

Compound: N=C(N)c1ccc(CNC(=O)Cn2c(-c3ccc4c(c3)OCO4)c(Cl)nc(NCCc3ccccc3)c2=O)cc1 [1471-47]
- % Inhibition Factor Xa (30 µM) (at 30 µM inhibitor): 22%

Compound: C[C@@H](C(=O)NCc1ccc(C(=N)N)cc1)n1c(-c2ccccc2)c(Cl)nc(NCCc2ccccc2)c1=O [Example 1517-15]
- % Inhibition Factor Xa (30 µM) (at 30 µM): 0%

Compound: N=C(N)c1ccc(CNC(=O)Cn2c(-c3cccc(Cl)c3)c(Cl)nc(NCc3ccccc3)c2=O)cc1 [Example 23]
- % Inhibition Factor Xa (30 µM) (at 30 µM inhibitor): 38% @ 30

Compound: N=C(N)c1ccc(CNC(=O)Cn2c(-c3cccc(N)c3)c(Cl)nc(NC3CCC3)c2=O)c(F)c1 [1543-39]
- % Inhibition Factor Xa (30 µM) (at 30 µM): 14%

Compound: Nc1n[nH]c2ccc(CNC(=O)Cn3c(-c4ccccc4)cnc(NCCc4ccccc4)c3=O)cc12 [Example 38]
- % Inhibition Factor Xa (30 µM) (at 30 µM inhibitor): 22%

Compound: CCc1c(Cl)nc(NCc2ccncc2)c(=O)n1CC(=O)NCc1ccc(C(=N)N)cc1 [1471-59]
- % Inhibition Factor Xa (30 µM) (at 30 µM inhibitor): 0%

Compound: N=C(N)c1ccc(CNC(=O)Cn2c(-c3c(Cl)cccc3Cl)c(Cl)nc(NCc3ccccc3)c2=O)cc1 [Example 1517-06]
- % Inhibition Factor Xa (30 µM) (at 30 µM inhibitor): 0%

Compound: N=C(N)c1ccc(CNC(=O)Cn2c(-c3ccsc3)c(Cl)nc(NC3CCC3)c2=O)cc1 [Example 1517-07]
- % Inhibition Factor Xa (30 µM) (at 30 µM inhibitor): 0%

Compound: N=C(N)c1ccc(CNC(=O)Cn2c(-c3ccccc3)c(Cl)nc(NCC(c3ccccc3)c3ccccc3)c2=O)cc1 [1507-09]
- % Inhibition Factor Xa (30 µM) (at 30 µM inhibitor): 13%

Compound: CC1CCCC(Nc2nc(Cl)c(-c3ccccc3)n(CC(=O)NCc3ccc(C(=N)N)cc3)c2=O)C1C (centres unmarked) [1512-23]
- % Inhibition Factor Xa (30 µM) (at 30 µM inhibitor): 6%

Compound: CCc1c(Cl)nc(NCCN2CCOCC2)c(=O)n1CC(=O)NCc1ccc(C(=N)N)cc1 [1471-60]
- % Inhibition Factor Xa (30 µM) (at 30 µM inhibitor): 0%

Compound: N=C(N)c1ccc(CNC(=O)Cn2c(-c3ccccc3)c(Cl)nc(NCc3ccncc3)c2=O)cc1 [1471-11]
- % Inhibition Factor Xa (30 µM) (at 30 µM inhibitor): 9%

Compound: CCCCCNc1nc(Cl)c(-c2ccccc2)n(CC(=O)NCc2ccc(C(=N)N)cc2)c1=O [Example 1517-48]
- % Inhibition Factor Xa (30 µM) (at 30 µM): 0%

Compound: N=C(N)c1ccc(CNC(=O)Cn2c(-c3ccccc3)c(Cl)nc(NC3CCCCCC3)c2=O)cc1 [1512-16]
- % Inhibition Factor Xa (30 µM) (at 30 µM inhibitor): 10%

Compound: N=C(N)c1ccc(CNC(=O)Cn2c(-c3ccccc3)c(Cl)nc(NCc3ccc(Cl)cc3)c2=O)cc1 [1507-46]
- % Inhibition Factor Xa (30 µM) (at 30 µM inhibitor): 8%

Compound: Cc1c(Cl)nc(NCc2ccncc2)c(=O)n1CC(=O)NCc1ccc(C(=N)N)cc1 [1471-3]
- % Inhibition Factor Xa (30 µM) (at 30 µM inhibitor): 0%

Compound: N=C(N)c1ccc(CNC(=O)Cn2c(-c3cccc(N)c3)c(Cl)nc(NCCCN3CCCC3)c2=O)cc1 [1543-27]
- % Inhibition Factor Xa (30 µM) (at 30 µM): 27%

Compound: N=C(N)c1ccc(CNC(=O)Cn2c(-c3ccccc3)c(Cl)nc(NCc3cc(F)c(F)c(F)c3)c2=O)cc1 [1512-32]
- % Inhibition Factor Xa (30 µM) (at 30 µM inhibitor): 5%

Compound: N=C(N)c1ccc(CNC(=O)Cn2c(-c3cccc(Cl)c3)c(Cl)nc(NCCc3cccc(Cl)c3)c2=O)cc1 [1471-30]
- % Inhibition Factor Xa (30 µM) (at 30 µM inhibitor): 41%

Compound: CNc1nc(Cl)c(-c2cccc(N)c2)n(CC(=O)NCc2ccc(C(=N)N)cc2)c1=O [1543-05]
- % Inhibition Factor Xa (30 µM) (at 30 µM): 14%

Compound: N=C(N)c1ccc(CNC(=O)Cn2c(-c3cccc(N)c3)c(Cl)nc(NCCN3CCCCC3)c2=O)cc1 [1543-15]
- % Inhibition Factor Xa (30 µM) (at 30 µM): 41%

Compound: CC(C)Nc1nc(Cl)c(-c2cccc(N)c2)n(CC(=O)NCCc2ccc(C(=N)N)cc2)c1=O [Example 62]
- % Inhibition Factor Xa (30 µM) (at 30 µM inhibitor): 10%

Compound: C[C@@H](C(=O)NCc1ccc(C(=N)N)cc1)n1c(-c2ccccc2)c(Cl)nc(NC2CCC2)c1=O [Example 1517-09]
- % Inhibition Factor Xa (30 µM) (at 30 µM inhibitor): 0%

Compound: CN(C)CCNc1nc(Cl)c(-c2cccc(N)c2)n(CC(=O)NCc2ccc(C(=N)N)cc2)c1=O [1543-09]
- % Inhibition Factor Xa (30 µM) (at 30 µM): 12%
